Results as given in paper PMC5823406, “Vehicle development, pharmacokinetics and toxicity of the anti-invasive agent 4-fluoro-3’,4’,5’-trimethoxychalcone in rodents” (PLoS ONE, 2018).
Like-named read-outs stand apart in the source and are kept apart here.

Assay: Whole-blood PK study (IV, IP and PO) in male CD-1 mice
Type: in vivo, mouse
Conditions: for Bioavailability: read-out: Bioavailability; for cmax: read-out: cmax; for concentration at 0.5 h: 0.50 h; for Vd: read-out: Vss; for Tmax: CD-1, whole blood
Experimental: Nine male CD-1 mice (25–35 g) were obtained from Hilltop Labs. Duration of acclimation was at least two days. Animals were randomly assigned to the three dose groups (IV, PO, intraperitoneal (IP), N = 3 per group), healthy at the start of the trial, housed one per cage (conventional type with wood chip bedding material), identified by a cage label and maintained in a well-controlled temperature (20–24 C) and humidity (30%-70%) environment with 12 h light/dark cycles. Animals intended for IV dosing were fitted with a jugular vein cannula (JVC, procedure see rat plasma PK study above). The study was not blinded. Food was withheld from the animals for a minimum of 12 h prior to test article administration until 4 h post-dose. Water was offered ad libitum.
C16 was dosed in cassette together with two undisclosed compounds of similar chemical structure. The dose of each test article was 1 mg/kg (IV, JVC, 0.5 mg/mL) or 10 mg/kg (IP and PO gavage, 2 mg/mL). Two respective dosing solutions were prepared (protocol see above) containing 0.5 and 2 mg/mL of C16 (and equal concentrations of the other two test articles) in 20% DMSO / 10% (DMSO / Cremophor EL 1:1) / 70% H2O. Formulations were prepared one day prior to dosing and stored at 4 °C.
Blood samples were taken pre-dose and 5 (except for PO administration), 15, 30 min, 1, 2, 4, and 8 h after dosing. The samples were collected via the tail vein or by cardiac puncture (8 h time point). Blood (25 μL) was collected and pipetted into a tube with 25 μL heparinized water (1 μL of sodium heparin (1000 unit/ml) + 24 μL water) within 30 seconds of collection. The sample was pipetted up and down five times, immediately frozen on dry ice and stored at -60°C to -80°C until analyzed. No necropsy was performed.
Pharmacokinetic parameters were estimated by a non-compartmental model using WinNonlin (v5.2.1 or higher) software. The maximum plasma/blood concentrations (c0) after IV dosing were estimated by extrapolation of the first two time points back to t = 0. The maximum blood concentration (cmax) and the time to reach maximum blood drug concentration (tmax) after PO dosing were derived from the data. The area under the time-concentration curve (AUC) was calculated using the linear trapezoidal rule with calculation to the last quantifiable data point, and with extrapolation to infinity if applicable. Plasma/blood half-life (t1/2) was calculated from 0.693/slope of the terminal elimination phase. Mean residence time (MRT) was calculated by dividing the area under the moment curve (AUMC) by the AUC. Clearance (CL) was calculated from dose/AUC. Steady-state volume of distribution (Vss) was calculated from CL*MRT. Bioavailability was determined by dividing the individual dose-normalized PO AUC values by the respective average dose-normalized intravenous (IV) AUC value. Samples that were below the limit of quantification were not used in the calculation of averages, and were treated as zero for pharmacokinetic data analysis. […]
Sprague-Dawley rats at 10 mg/kg (in 100% DMSO). […]
c Bioavailability determined by dividing the individual dose normalized oral AUC last by the average dose normalized intravenous AUC last value. […]
The dosing solution was prepared as a cassette to contain all three test articles in the same solutions using a vehicle
consisting of 20% DMSO/10% (DMSO/Cremophor EL 1:1)/70% Milli-Q water.
Individual blood concentrations and pharmacokinetic parameters are shown in Table H through Table J. All data are
expressed as ng/mL of the free drug. Samples that were below the limit of quantification were not used in the
calculation of averages. Concentration versus time data are plotted in Fig D through Fig F.
Table H. Individual blood concentrations (ng/mL) and PK parameters for C16 after IV administration in male CD-1 mice at 1 mg/kg.
t (h) 0 (pre-dose) BLOQ BLOQ BLOQ
(1 picture or pasted object on this page, not shown here)

[1] = male, CD-1, mouse, whole blood, ip, 10 mg/kg, male CD-1 mouse, IP 10 mg/kg, average
[2] = male, CD-1, mouse, whole blood, ip, 10 mg/kg, mouse blood, IP 10 mg/kg, individual animals 4-6
[3] = male, CD-1, mouse, whole blood, ip, 10 mg/kg, mouse, IP 10 mg/kg, animals 4-6, read-out: Individual blood concentration
[4] = male, CD-1, mouse, whole blood, ip, 10 mg/kg, whole blood, male CD-1 mouse, IP 10 mg/kg, average
[5] = male, CD-1, mouse, whole blood, iv, 1 mg/kg, male CD-1 mouse, IV 1 mg/kg, average
[6] = male, CD-1, mouse, whole blood, iv, 1 mg/kg, mouse blood, IV 1 mg/kg, individual animals 1-3
[7] = male, CD-1, mouse, whole blood, iv, 1 mg/kg, mouse, IV 1 mg/kg, animals 1-3, read-out: Individual blood concentration
[8] = male, CD-1, mouse, whole blood, po, 10 mg/kg, male CD-1 mouse, PO 10 mg/kg, average
[9] = male, CD-1, mouse, whole blood, po, 10 mg/kg, mouse blood, PO 10 mg/kg, individual animals 7-9
[10] = male, CD-1, mouse, whole blood, po, 10 mg/kg, whole blood, male CD-1 mouse, PO 10 mg/kg, average

## COc1cc(C(=O)/C=C/c2ccc(F)cc2)cc(OC)c1OC [C16, 4-fluoro-3’,4’,5’-trimethoxychalcone]
Male CD-1 mouse, IP 10 mg/kg
  time of maximum blood concentration: 15 min
Male CD-1 mouse, PO 10 mg/kg
  time of maximum blood concentration: 15 min
[1]
  AUC(0-inf): 114 ng·h/mL
  AUC(0-t): 109 ng·h/mL
  MRT last: 48 min
  half-life: 48 min
[2]
  AUC(0-inf): 101 ng·h/mL
  AUC(0-t): 99.2 ng·h/mL
  MRT last: 59.5 min
  half-life: 38.2 min
  Bioavailability: 49.7%
  cmax: 90.3 ng/mL
[3]
  concentration at 0.25 h: 90.3 ng/mL
  concentration at 0.5 h: 48.2 ng/mL
  concentration at 1 h: 49.2 ng/mL
  concentration at 2 h: 13.4 ng/mL
[4]
  Bioavailability: 54.7%
  cmax: 107 ng/mL
[5]
  AUC(0-inf): 22.4 ng·h/mL
  AUC(0-t): 20 ng·h/mL
  MRT last: 26 min
  clearance: 750 mL/min/kg
  half-life: 44.8 min
male, CD-1, mouse, whole blood, iv, 1 mg/kg, male CD-1 mouse, IV 1 mg/kg, average, extrapolated to t = 0
  C0: 76 ng/mL
[6]
  AUC(0-inf): 22.9 ng·h/mL
  AUC(0-t): 20.2 ng·h/mL
  MRT last: 25.6 min
  clearance: 727 mL/min/kg
  half-life: 49.4 min
  Vd: 32.8 L/kg
male, CD-1, mouse, whole blood, iv, 1 mg/kg, mouse, IV 1 mg/kg, 0.083 h, animals 1-3, read-out: Individual blood concentration
  concentration at 0.083 h: 46.4 ng/mL
[7]
  concentration at 0.25 h: 17.3 ng/mL
  concentration at 0.5 h: 8.4 ng/mL
  concentration at 1 h: 4.5 ng/mL
  concentration at 2 h: 2.28 ng/mL
male, CD-1, mouse, whole blood, iv, 1 mg/kg, whole blood, male CD-1 mouse, IV 1 mg/kg, average
  Vd: 32.6 L/kg
[8]
  AUC(0-t): 20.9 ng·h/mL
  MRT last: 82.8 min
male, CD-1, mouse, whole blood, po, 10 mg/kg, mouse blood, PO 10 mg/kg, individual animal 7
  half-life: 176 min
[9]
  AUC(0-t): 23.2 ng·h/mL
  Bioavailability: 11.6%
[10]
  Bioavailability: 10.5%
  cmax: 12.5 ng/mL
male, mouse blood, IP 10 mg/kg, individual animals 4-6
  Tmax: 15 min
male, mouse blood, IV 1 mg/kg, individual animals 1-3
  Tmax: 0 min
male, mouse blood, PO 10 mg/kg, individual animals 7-9
  Tmax: 15 min
